Patent US6984486B1, “Synthetic peptide of regulatory virus protein R (VPR) of human immunodeficiency virus type 1 (HIV-1) and the utilization thereof” (J. David Gladstone Institutes, priority 1999, dated 2006)

Columns and labels:
[1] = compared with native viral Vpr
[2] = tested on: HIV-1NL4-3; conditions: cultures of human PBMC, 10 nM peptide
Description: (§1) Cultures of PHA- and IL-2-activated PBMCs were infected with equal infectious doses of the following virus stocks: HIV-1NL4-3 (A, B, C), NL4-3(AD8) (D) as well as the vpu-deficient mutant NL(AD8)-UDEL1 (E), and the vpr-deficient mutant NL(AD8)deltaR (F).

[3] = tested on: human PBMC; conditions: cultures of human PBMC infected with HIV-1NL4-3, 10 nM peptide
Description: as §1

[4] = tested on: vpr deficient HIV-1 mutant viruses; conditions: primary human monocytes/macrophages from different donors, vpr-deficient mutant NL(AD8)deltaR, two months
Description: Parallel cultures of differentiated MDM isolated from three different donors were infected with equal infectious doses of purified virus stocks of the macrophage-tropic virus NL4-3(AD8) as well as the vpr-deficient mutant NL(AD8)deltaR. Virus production was followed over a time frame of two months and release of virus associated RT-activity was plotted against time.

H-Met-Glu-Gln-Ala-Pro-Glu-Asp-Gln-Gly-Pro-Gln-Arg-Glu-Pro-Tyr-Asn-Gln-Trp-Thr-Leu-Glu-Leu-Leu-Glu-Glu-Leu-Lys-Ser-Glu-Ala-Val-Arg-His-Phe-Pro-Arg-Ile-Trp-Leu-His-Asn-Leu-Gly-Gln-His-Ile-Tyr-Glu-Thr-Tyr-Gly-Asp-Thr-Trp-Ala-Gly-Val-Glu-Ala-Ile-Ile-Arg-Ile-Leu-Gln-Gln-Leu-Leu-Phe-Ile-His-Phe-Arg-Ile-Gly-Cys-Arg-His-Ser-Arg-Ile-Gly-Val-Thr-Arg-Gln-Arg-Arg-Ala-Arg-Asn-Gly-Ala-Ser-Arg-Set-OH [sVpr^1-96]
biological activities [1]: comparable to native viral Vpr
virus replication (virus associated RT-activity released into cell culture supernatant) [2]: activates virus replication
number of live cells [3]: increases the number of live cells
virus replication (release of virus associated RT-activity) [4]: activates virus replication
